The test system of the experiment is IL-1β release upon NLRP3 activation in peripheral blood mononuclear cells (PBMC). The experiment can be described thus: PBMC IC50 determination assay (IL-1β release, Protocol A ELISA / Protocol B HTRF). In kind it is cell-based. As to conditions: Homo sapiens; PBMC primed with LPS 3 h, compound 30 min, stimulated with ATP (5 mM) or nigericin (10 μM) 1 h; IL-1β in media; read-out: Average PBMC IC50. The procedure:
The compounds of the present disclosure were tested for their inhibitory activity against IL-1β release upon NLRP3 activation in peripheral blood mononuclear cells (PBMC).
Isolated cells were seeded into the wells of a 96-well plate and incubated for 3 h with lipopolysaccharide (LPS). Following medium exchange, the compounds of the present disclosure were added (a single compound per well) and the cells were incubated for 30 min. Next, the cells were stimulated either with ATP (5 mM) or nigericin (10 μM) for 1 h and the cell culture media from the wells were collected for further analysis.
The release of IL1-β into the media was determined by a quantitative detection of IL-1β in the media using an IL-1β enzyme-linked immunosorbent assay (ELISA) Ready-SET-Go!, eBioscience cat. […] Subsequently, plates were blocked with blocking buffer for 1 h at room temperature (rt) and after washing with a buffer (PBS with 0.05% Tween-20) incubated with protein standard and culture media. […] Plates were washed and incubated with HRP-streptavidin for 30 min at rt and washed again. The signal was developed after addition of 3,3′,5,5′-tetramethylbenzidine-peroxidase (TMB) until colour appeared and the reaction was stopped by 2 M H2SO4. A microplate spectrophotometer (BioTek) was used to detect signals with 450 nm. The detection range of IL-1β ELISA was 2-150 ng/ml.
Isolated cells were seeded into the wells (280,000 cells/well) of a 96-well plate and incubated for 3 h with lipopolysaccharide (LPS, 1 μg/ml diluted 1000× from a 1 mg/ml stock solution). The compounds of the present disclosure were added (a single compound per well) and the cells were incubated for 30 min. Next, the cells were stimulated with ATP (5 mM final concentration diluted 20× from a 100 mM stock solution) for 1 h and the cell culture media from the wells were collected for further analysis.
The release of IL-1β into the media was determined by quantitative detection of IL-1β in the media using HTRF®, CisBio cat. No. 62HIL1BPEH. Briefly, cell culture supernatant were dispensed directly into the assay plate containing antibodies labelled with the HTRF® donor and acceptor. A microplate spectrophotometer (BMG) was used to detect signals at 655 nm and 620 nm. The detection range of IL-1β HTRF® was 39-6500 pg/ml.
For orientation: In an ELISA, binding on a coated surface is turned into a signal by an enzyme label.

What is called IC50 is the point on the concentration scale where inhibition reaches its midpoint. As to `Cc1noc(N(C2CCCN(C)C2)S(=O)(=O)NC(=O)Nc2c3c(cc4c2CCC4)CCC3)c1C` (stereo not shown) [Compound 116], the IC50 was < 1000 nM.

For the origin of these results see patent US12459925B2, “Sulphonyl urea derivatives as NLRP3 inflammasome modulators” (priority 2017, dated 2025).
